Measurements published in patent US20040040554A1 (priority 2000, published 2004).
Like-named read-outs stand apart in the source and are kept apart here.

Key:
[1] = system: influenza A virus (A/PR/8/34 strain); type: cell-based; details: read-out: Inhibiting Activity Infection (IC50)
[2] = system: influenza A virus (A/PR/8/34 strain); type: cell-based; details: read-out: Inhibiting Activity Cell Fusion (IC50)
[3] = system: influenza A virus (A/PR/8/34 strain)

Pentenyl(5-acetamido-3,5-dideoxy-D-glycero-α-D-galacto-2-nonulopyranosylic Acid)-O-β-D-galactopyranosyl-(1→4)-O-β-D-glucopyranoside [vii]
IC50 [1]: 124 µM
IC50 [2]: 745 µM
Inhibiting Activity Erythrocyte Aggregation [3]: 133.3 µM
